Drawing on patent publication US20040248769A1, “Enzyme inhibitors for inactivating allergens” (priority 2001, published 2004), this text covers Rate and Km for one molecule.

The subject of assay [1] is Cat1 S3 fur extract proteolytic activity. The experiment in a line: Proteolytic activity of fur extract against NHMec substrates. Format: biochemical, cat. The following applies: sample Cat1 S3, 5 μM substrate, 37° C., pH 7.5. The protocol: (§1) A clean pet brush was used to brush three common English domestic cats. Fur from guinea pigs, rabbit, dogs and horse was collected in the same way. A different brush was used for each species and between brushings these were cleaned thoroughly in a denaturing detergent solution (Fairy® detergent) and then ethanol. The brushings were transferred to a sterile universal container and extracted by shaking in an extraction buffer, 50 mM Tris.HCl, 5 mM CaCl2, pH 7.5 (0.1 g/ml). The solution was recovered by centrifugation and stored at −20° C. in aliquots. Saliva was collected from a mastiff-type dog and stored frozen in aliquots until assayed. Sample aliquots were assayed for proteolytic activity using fluorometric blocked peptidylaminomethylcoumarylamide substrates in the cuvette of a Perkin Elmer fluorimeter at 37° C. The fluorimeter was standardised with a known concentration of methylcoumarin, and the assays were designed so that no more than 10% substrate hydrolysis occurred.
(§2) Assays were performed in assay buffer; 50 mM Tris.HCl, 5 mM CaCl2, 0.1% CHAPS, pH 7.5. Data were collected in real-time on a personal computer using the Flusys software package.
(§3) In the first series of experiments the sample (12 μl) was assayed against a range of serine and cysteine proteinase aminomethylcoumarylamide (NHMec) substrates (obtained commercially from Bachem) under standard conditions of 5 μM substrate concentration (from a 100-fold stock solution in dimethyl sulfoxide) to give a final volume of 120 μl. After addition of substrate the rate without sample was determined (which in all cases was zero), after which the sample was applied and the progress of the reaction was followed for a further 15 min. The slope obtained (fluorescence vs time) was analysed by linear regression and converted to rate of product formation (nM/min) see results table 2.

The subject of assay [2] is Cat3 S1 fur extract proteolytic activity. Described as above. In kind it is biochemical, cat. The note with it: sample Cat3 S1, 5 μM substrate, 37° C., pH 7.5. The protocol: as §1, §2, §3
Assay [3] relates to Rabbit1 S1 fur extract proteolytic activity. Described as above. The note with it: sample Rabbit1 S1, 5 μM substrate, 37° C., pH 7.5. In kind it is biochemical, rabbit. As for the experimental part:
as §1, with “Sample aliquots were assayed for proteolytic activity using fluorometric blocked peptidylaminomethylcoumarylamide substrates in the cuvette of a Perkin Elmer fluorimeter at 37° C. The fluorimeter was standardised with a known concentration of methylcoumarin, and the assays were designed so that no more than 10% substrate hydrolysis occurred.” left out
as §3

Assay [4] relates to Dog1 S1 fur extract proteolytic activity. The assay is described as above. Format: biochemical, dog. The following applies: sample Dog1 S1 (fur), 5 μM substrate, 37° C., pH 7.5. As for the experimental part:
as §1, with “Sample aliquots were assayed for proteolytic activity using fluorometric blocked peptidylaminomethylcoumarylamide substrates in the cuvette of a Perkin Elmer fluorimeter at 37° C. The fluorimeter was standardised with a known concentration of methylcoumarin, and the assays were designed so that no more than 10% substrate hydrolysis occurred.” left out
as §3

Assay [5] has as its system Dog1 S2 saliva proteolytic activity. In words: Proteolytic activity of saliva against NHMec substrates. Format: biochemical, dog. The note with it: sample Dog1 S2 (saliva), 5 μM substrate, 37° C., pH 7.5. As for the experimental part:
as §1, with “Sample aliquots were assayed for proteolytic activity using fluorometric blocked peptidylaminomethylcoumarylamide substrates in the cuvette of a Perkin Elmer fluorimeter at 37° C. The fluorimeter was standardised with a known concentration of methylcoumarin, and the assays were designed so that no more than 10% substrate hydrolysis occurred.” left out
as §3

In assay [6] the test system is G. pig1 S1 fur extract proteolytic activity. In words: Proteolytic activity of fur extract against NHMec substrates. Format: biochemical, guinea pig. The following applies: sample G. pig1 S1, 5 μM substrate, 37° C., pH 7.5. As for the experimental part: as §1, with “Sample aliquots were assayed for proteolytic activity using fluorometric blocked peptidylaminomethylcoumarylamide substrates in the cuvette of a Perkin Elmer fluorimeter at 37° C. The fluorimeter was standardised with a known concentration of methylcoumarin, and the assays were designed so that no more than 10% substrate hydrolysis occurred.” left out
as §3

The test system of assay [7] is G. pig2 S1 fur extract proteolytic activity. The assay is described as above. Format: biochemical, guinea pig. The following applies: sample G. pig2 S1, 5 μM substrate, 37° C., pH 7.5. As for the experimental part:
as §1, with “Sample aliquots were assayed for proteolytic activity using fluorometric blocked peptidylaminomethylcoumarylamide substrates in the cuvette of a Perkin Elmer fluorimeter at 37° C. The fluorimeter was standardised with a known concentration of methylcoumarin, and the assays were designed so that no more than 10% substrate hydrolysis occurred.” left out
as §3

For another assay, the system named is cat fur enzyme(s). The experiment in a line: Rates of cleavage at varying substrate concentration and Km. In kind it is biochemical. The note with it: for Rate: cat fur sample. The protocol:
as §3
A rough estimate of the Km for the cleavage of Z-Gly-Gly-Arg-NHMec and of Z-Phe-Arg-NHMec by the cat fur enzyme(s) were determined using the same procedure with varying concentrations of these substrates see results table 3.
As the activity follows normal Michaelis-Menten kinetics it is clear that it is due to the activity of one or more biological catalysts or enzymes.

Where a SMILES comes first, the peptide text is derived from it. The star is where a group is joined. AMC = Cc1cc(=O)oc2cc(N*)ccc12; Cbz = O=C(OCc1ccccc1)*

Usually Km stands for the substrate concentration at which the rate is half of its maximum.

With `Cc1cc(=O)oc2cc(NC(=O)C(CCCN=C(N)N)NC(=O)C(Cc3ccccc3)NC(=O)OCc3ccccc3)ccc12` (stereo not drawn) [Z-Phe-Arg-NHMec] (Cbz-Phe-Arg-{AMC}; configuration not given here), the Rate amounted to 43.5 nM/min in assay [1]; 24.5 nM/min in assay [2]; 3.93 nM/min in assay [3]; 40.6 nM/min in assay [4]; 1786.9 nM/min in assay [5]; 9.11 nM/min in assay [6]. For the same molecule, the Rate in assay [7] came to 18.66 nM/min; with cat fur enzyme(s) ([Substrate] 0.5 μM), 3.74 nM/min; in the assay on cat fur enzyme(s) ([Substrate] 1.0 μM) it was 6.99 nM/min; in the assay with cat fur enzyme(s) ([Substrate] 2.0 μM), 10.2 nM/min; in the assay with cat fur enzyme(s) ([Substrate] 5 μM) it was 27.3 nM/min; in the assay with cat fur enzyme(s) ([Substrate] 60 μM) it was 35.4 nM/min. Also, the values for the Rate in the assay on cat fur enzyme(s) ([Substrate] 80 μM) and in the assay with cat fur enzyme(s) ([Substrate] 100 μM) were 32.3 nM/min and 33.7 nM/min, respectively. The Km in the assay with cat fur enzyme(s) (non-linear regression, Enzfitter, rough estimate) is 3.2 ± 0.9 µM.
